Where two headings read alike, the source gives them in different places. One block for each molecule: values may come before it.
Tests used:
[1] = molecular target: T1, ligand-binding domain of human type PPARα (Homo sapiens, UniProt Q07869); experiment: Test of transactivation on peroxisome proliferator-activated receptor (CHO cells, reporter plasmid), PPARα
T1 sequence (Q07869 239-466 limits assumed): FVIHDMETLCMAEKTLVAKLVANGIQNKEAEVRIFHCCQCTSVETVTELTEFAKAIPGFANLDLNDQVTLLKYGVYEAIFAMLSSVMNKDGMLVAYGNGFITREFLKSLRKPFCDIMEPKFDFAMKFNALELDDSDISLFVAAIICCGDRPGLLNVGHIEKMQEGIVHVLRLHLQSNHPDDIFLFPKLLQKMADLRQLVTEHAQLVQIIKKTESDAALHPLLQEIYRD
Description: (§1) After 24 hours, CAT activity and β-galactosidase activity were measured.

[2] = molecular target: T2, ligand-binding domain of human type PPARγ (Homo sapiens, UniProt P37231); experiment: Test of transactivation on peroxisome proliferator-activated receptor (CHO cells, reporter plasmid), PPARγ
T2 sequence (P37231 238-503 limits assumed): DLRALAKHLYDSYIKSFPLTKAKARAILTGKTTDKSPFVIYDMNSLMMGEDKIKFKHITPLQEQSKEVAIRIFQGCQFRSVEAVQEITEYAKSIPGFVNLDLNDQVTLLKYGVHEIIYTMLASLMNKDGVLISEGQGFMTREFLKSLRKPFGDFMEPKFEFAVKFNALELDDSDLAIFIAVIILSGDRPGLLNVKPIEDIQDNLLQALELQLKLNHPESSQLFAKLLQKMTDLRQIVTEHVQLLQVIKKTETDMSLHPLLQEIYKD
Description: as §1

[3] = read-out: Transactivation action PPARα EC50, CHO cells cotransfected with receptor and reporter plasmids, 24 hours, CAT activity, β-galactosidase internal standard

Compound: CCCCC/C=C\C/C=C\C=C\[C@@H](O)C/C=C\CCCC(=O)O [(8S)-HETE, reference compound]
EC50 [1, 3]: 1300 nM

Compound: COc1ccc(CC2SC(=O)NC2=O)cc1CC(=O)Nc1ccc(C(F)(F)F)cc1 (stereo not shown) [Example 6, N-[4-(Trifloromethyl)phenyl]-2-[5-[(2,4-dioxothiazolidin-5-yl)methyl]2-methoxyphenyl]acetamide]
EC50 ([2]; read-out: Transactivation action PPARγ EC50, CHO cells cotransfected with receptor and reporter plasmids, 24 hours, CAT activity, β-galactosidase internal standard): 3300 nM
EC50 [1, 3]: 600 nM

Compound: COc1ccc(CC2SC(=O)NC2=O)cc1NC(=O)Nc1ccc(C(F)(F)F)cc1 (stereo not shown) [Example 11, 5-[[4-Methoxy-3-[3-[4-(trifluoromethyl)phenyl]ureido]phenyl]methyl]thiazolidinex-2,4-dione]
melting point: 202 to 204 °C
EC50 [2]: 430 nM
EC50 [1]: 550 nM

Compound: COc1ccc(CC2SC(=O)NC2=O)cc1NC(=O)Cc1ccc(C(F)(F)F)cc1 (stereo not shown) [Example 15, N-[2-Methoxy-5-[(2,4-dioxothiazolidin-5-yl)methyl]phenyl]-2-[4-(trifluoromethyl)phenyl]acetamide]
melting point: 147 to 149 °C
EC50 [2]: 1100 nM
EC50 [1]: 860 nM

More lines, now with the values ahead:

melting point: 103 to 104.5 °C
EC50 [2]: 400 nM
EC50 [1]: 800 nM
Compound: COc1ccc(CC2SC(=O)NC2=O)cc1C(=O)CCc1ccc(C(F)(F)F)cc1 (stereo not shown) [Example 22, 5-[[3-[3-[4-(Trifluoromethyl)phenyl]propanoyl]-4-methoxynhenyl]methyl]thiazolidine-2,4-dione]

melting point: 82 to 84 °C
Compound: COc1ccc(CC2SC(=O)NC2=O)cc1CC(=O)Nc1ccc(Oc2ccccc2)cc1 (stereo not shown) [Example 23, N-[4-(Phenoxy)phenyl]-2-[5-[(2,4-dioxothiazolidin-5-yl)methyl]-2-methoxyphenyl]acetamide]

From US6730687B1, “Substituted benzylthiazolidine-2, 4-dione derivatives” (Kyorin Pharmaceutical Co., Ltd., priority 1999, dated 2004)
